Row | SMILES | melting point
1 | NC(=O)c1sc2nc(N3CCC(NCC(O)c4cccnc4)CC3)cc(C(F)(F)F)c2c1N (centres unmarked) [Example 9, 3-Amino-6-[4-(2-hydroxy-2-pyridin-3-yl-ethylamino)-piperidin-1-yl]-4-trifluoromethyl-thieno[2,3-b]pyridine-2-carboxylic acid amide] | 179 to 181 °C
2 | NC(=O)c1sc2nc(N3CCC(NCC(O)c4ccc5ccccc5n4)CC3)cc(C(F)(F)F)c2c1N (centres unmarked) [Example 10, 3-Amino-6-[4-(2-hydroxy-2-quinolin-2-yl-ethylamino)-piperidin-1-yl]-4-trifluoromethyl-thieno[2,3-b]pyridine-2-carboxylic acid amide] | 198 to 201 °C
3 | NC(=O)c1sc2nc(N3CCC(NC[C@@H](O)c4ccccn4)CC3)cc(C(F)(F)F)c2c1N [Example 22, 3-Amino-6-[4-((R)-2-hydroxy-2-pyridin-2-yl-ethylamino)-piperidin-1-yl]-4-trifluoromethyl-thieno[2,3-b]pyridine-2-carboxylic acid amide] | 165 to 167 °C

More lines, now with the values ahead:

Row | melting point | SMILES
4 | 213 to 216 °C | CCCc1cc(N2CCC(NCC(O)c3cnc4ccccc4c3)CC2)nc2sc(C(N)=O)c(N)c12 (centres unmarked) [Example 8, 3-Amino-6-[4-(2-hydroxy-2-quinolin-3-yl-ethylamino)-piperidin-1-yl]-4-propyl-thieno[2,3-b]pyridine-2-carboxylic acid amide]
5 | 213 to 215 °C (dec.) | CCCc1cc(N2CCC(NCC(O)c3cc4ccccc4cn3)CC2)nc2sc(C(N)=O)c(N)c12 (centres unmarked) [Example 11, 3-Amino-6-[4-(2-hydroxy-2-isoquinolin-3-yl-ethylamino)-piperidin-1-yl]-4-propyl-thieno[2,3-b]pyridine-2-carboxylic acid amide]
